Data on two compounds can be found in patent US11459323B2, “Monocyclic β-lactam compound for treating bacterial infection” (MEDSHINE DISCOVERY INC., priority 2018, dated 2022).

Test [1] concerns Pseudomonas aeruginosa PA14. Description: Lungs of immunosuppressed mice infected with Pseudomonas aeruginosa (2), lung bacterial load. The class given is in vivo. As to conditions: 24 hours after infection, total dosage 60 mg/kg, day, ip at 2 h, 4 h, 6 h, 8 h. The method, then: Pseudomonas aeruginosa PA14. 60 mice were intraperitoneally injected with 150 mg/kg cyclophosphamide on day 1 and day 4 to give immunosuppressed mice. […] [table] The mice were injected with 50 μL of bacterial solution (2×10^3 CFU) through the airway. 2 hours after the infection, 4 mice in the model group was sacrificed by removing cervical vertebra. Two hours after infection, the drugs were administered by groups, and the mice were administered intraperitoneally once at 2 hours, 4 hours, 6 hours, and 8 hours, a total of 4 times. Mice of each group were sacrificed by removing cervical vertebra 24 hours after infection, lung and kidney tissues were taken aseptically and put into a sterilized tissue homogenate tube, weighed, and an appropriate amount of normal saline (NS) was added, the mixture was homogenized by a homogenizer for 1 min, the lung tissues of the model group were diluted 10^4, 10^5, 10^6 times, the lung tissues of each administration group were diluted 10, 100 times, the kidney tissues of the model group were diluted 10^2, 10^3, 10^4 times, and the lung tissues of each administration group were diluted 10 times, the obtained mixtures were coated on TSA plates using spiral coater, then incubated at 37° C. overnight, and the CFU was counted with a colony counter. Graphpad Prism mapping software was used to make scatter plots of lung tissue CFU. SPSS19.0 software was used to count CFU and average body weight, and analysis of variance was used to analyze differences between groups.

Test [2] has as its system Pseudomonas aeruginosa PA14. Description: Lungs of immunosuppressed mice infected with Pseudomonas aeruginosa (1), lung bacterial load. The class given is in vivo. As to conditions: 24 hours after infection, day, ip at 2 h, 4 h, 6 h, 8 h. The method, then: Pseudomonas aeruginosa PA14. 64 mice were intraperitoneally injected with 150 mg/kg cyclophosphamide on the first day and the fourth day to give immunosuppressed mice. […] [table] The mice were injected with 50 μL of bacterial solution (2×10^3 CFU) through the airway. 2 hours after the infection, 4 mice in the model group was sacrificed by removing cervical vertebra. Two hours after infection, the drugs were administered by groups, and the mice were administered intraperitoneally once at 2 hours, 4 hours, 6 hours, and 8 hours, a total of 4 times. Mice of each group were sacrificed by removing cervical vertebra 24 hours after infection, lung and kidney tissues were taken aseptically and put into sterilized tissue homogenate tubes, weighed, and an appropriate amount of normal saline (NS) was added, the mixture was homogenized by a homogenizer for 1 min, the lung tissues of the model group were diluted 10^4, 10^5, 10^6 times, the lung tissues of each administration group were diluted 10, 100 times, the kidney tissues of the model group were diluted 10^2, […], 10^4 times, and the lung tissues of each administration group were diluted 10 times, the obtained mixtures were coated on TSA plates using spiral coater, then incubated at 37° C. overnight, and the CFU was counted with a colony counter. Graphpad Prism mapping software was used to make scatter plots of lung tissue CFU. SPSS19.0 software was used to count CFU and average body weight, and analysis of variance was used to analyze differences between groups.

A further test has as its system E. coli ATCC 25922. Description: MIC by micro-liquid dilution method (CLSI). It counts as cell-based. As to conditions: Escherichia coli, ATCC25922.
Test [3] has as its system E. coli ATCC BAA-2523 (OXA-48). Description: MIC by micro-liquid dilution method (CLSI). It counts as cell-based. The note with it: Escherichia coli, ATCCBAA2523. The text has this:
(§1) Three strains of Klebsiella pneumonia, K. pneumoniae ATCC BAA-205 (TEM-1/SHV-1/SHV-12), K. pneumoniae ATCC BAA-1705 (KPC-2), K. pneumoniae ATCC BAA-2470 (NDM-1); three strains of Pseudomonas aeruginosa, P. aeruginosa NCTC13437 (VIM-10; VEB-1), P. aeruginosa PA 14 and P. aeruginosa ATCC 35151; four strains of Escherichia coli, E. coli NCTC 13476 (IMP-1 type), E. coli ATCC BAA-2523 (OXA-48), E. coli MG1655Δtol C, E. coli ATCC 25922; one strain of Acinetobacter baumannii, A. baumannii ATCC 17978 and one strain of Staphylococcus aureus, S. aureus NRS384 were used to determine the minimum inhibitory concentration (MIC) of the compounds by micro-liquid dilution method according to the Institute of Clinical and Laboratory Standard (CLSI) requirements.

The test system of a further test is E. coli MG1655Δtol C. Description: MIC by micro-liquid dilution method (CLSI). The class given is cell-based. As to conditions: Escherichia coli.
Excerpt: as §1

Test [4] deals with E. coli NCTC 13476 (IMP-1 type). Description: MIC by micro-liquid dilution method (CLSI). It counts as cell-based. As to conditions: Escherichia coli; E. coli NCTC13476; read-out: MIC.
Excerpt: as §1

In another test the test system is P. aeruginosa PA 14. Description: MIC by micro-liquid dilution method (CLSI). It counts as cell-based. The note with it: Pseudomonas aeruginosa, PA14; P. aeruginosa PA 14; read-out: MIC.
Excerpt: as §1

Test [5] has as its system K. pneumoniae ATCC BAA-1705 (KPC-2). Description: MIC by micro-liquid dilution method (CLSI). It counts as cell-based, Klebsiella pneumonia. As to conditions: Klebsiella pneumoniae, ATCCBAA1705; K. pneumoniae ATCCBAA-1705; read-out: MIC.
Test [6] concerns K. pneumoniae ATCC BAA-205 (TEM-1/SHV-1/SHV-12). Description: MIC by micro-liquid dilution method (CLSI). It counts as cell-based, Klebsiella pneumonia. The note with it: Klebsiella pneumoniae, ATCCBAA205; K. pneumoniae ATCCBAA-205; read-out: MIC.
For test [7], the system named is Acinetobacter baumannii ATCC-BAA-1800. Description: MIC on Acinetobacter baumannii strains. The class given is cell-based. As to conditions: ATCCBAA1800, ATCC-BAA-1800, read-out: MIC. The text has this: (§2) Twelve strains of Acinetobacter baumannii, A. baumannii ATCC 17978 (ATCC-BAA-1605, ATCC-BAA-1789, ATCC-BAA-1790, ATCC-BAA-1791, ATCC-BAA-1792, ATCC-BAA-1793, ATCC-BAA-1794, ATCC-BAA-1795, ATCC-BAA-1799, ATCC-BAA-1800, ATCC 19606, ATCC 17978) were used to determine the minimum inhibitory concentration (MIC) of the compounds by micro-liquid dilution method according to the Institute of Clinical and Laboratory Standard (CLSI) requirements.

Test [8] deals with Acinetobacter baumannii ATCC 19606. Description: MIC on Acinetobacter baumannii strains. The class given is cell-based. The note with it: ATCC19606.
Excerpt: as §2

Test [9] concerns Acinetobacter baumannii ATCC-BAA-1790. Description: MIC on Acinetobacter baumannii strains. It counts as cell-based. As to conditions: ATCCBAA1790, ATCC-BAA-1790, read-out: MIC.
Excerpt: as §2

Test [10] concerns Acinetobacter baumannii ATCC-BAA-1795. Description: MIC on Acinetobacter baumannii strains. It counts as cell-based. As to conditions: ATCCBAA1795.
Excerpt: as §2

The test system of test [11] is Acinetobacter baumannii ATCC-BAA-1789. Description: MIC on Acinetobacter baumannii strains. The note with it: ATCCBAA1789. The class given is cell-based.
Excerpt: as §2

For test [12], the system named is Acinetobacter baumannii ATCC-BAA-1791. Description: MIC on Acinetobacter baumannii strains. It counts as cell-based. As to conditions: ATCCBAA1791.
Excerpt: as §2

The subject of test [13] is Acinetobacter baumannii ATCC 17978. Description: MIC on Acinetobacter baumannii strains. It counts as cell-based. As to conditions: ATCC17978.
Excerpt: as §2

The subject of test [14] is Acinetobacter baumannii ATCC-BAA-1799. Description: MIC on Acinetobacter baumannii strains. The class given is cell-based. The note with it: ATCCBAA1799, ATCC-BAA-1799, read-out: MIC.
Excerpt: as §2

The subject of test [15] is Acinetobacter baumannii ATCC-BAA-1793. Description: MIC on Acinetobacter baumannii strains. It counts as cell-based. As to conditions: ATCCBAA1793, ATCC-BAA-1793, read-out: MIC.
Excerpt: as §2

Test [16] concerns Acinetobacter baumannii ATCC-BAA-1792. Description: MIC on Acinetobacter baumannii strains. It counts as cell-based. As to conditions: ATCCBAA1792, ATCC-BAA-1792, read-out: MIC.
Excerpt: as §2

Test [17] concerns Acinetobacter baumannii ATCC-BAA-1794. Description: MIC on Acinetobacter baumannii strains. The class given is cell-based. As to conditions: ATCCBAA1794, ATCC-BAA-1794, read-out: MIC.
Excerpt: as §2

The test system of test [18] is Acinetobacter baumannii ATCC-BAA-1605. Description: MIC on Acinetobacter baumannii strains. The class given is cell-based. As to conditions: ATCCBAA1605, ATCC-BAA-1605, read-out: MIC.
Excerpt: as §2

A further test relates to P. aeruginosa ATCC 35151. Description: MIC by micro-liquid dilution method (CLSI). As to conditions: Pseudomonas aeruginosa, ATCC35151. The class given is cell-based.
The next test deals with A. baumannii ATCC 17978. Description: MIC by micro-liquid dilution method (CLSI). It counts as cell-based. The note with it: Acinetobacter baumannii; A. baumannii ATCC17978; read-out: MIC.
The subject of test [19] is K. pneumoniae ATCC BAA-2470 (NDM-1). Description: MIC by micro-liquid dilution method (CLSI). The class given is cell-based, Klebsiella pneumonia. The note with it: Klebsiella pneumoniae, ATCCBAA2470; K. pneumoniae ATCCBAA-2470; read-out: MIC.

Converted amounts (≈) assume the structure as drawn. Marks after values point to notes of the source that are not given here.

`CC1(C)[C@H](NC(=O)/C(=N\O[C@@H](COc2ccc(C(=N)N[C@@H]3CCCNC3)cc2)C(=O)O)c2csc(N)n2)C(=O)N1OS(=O)(=O)O` [I-g, reference compound]: the LOG10-of bacterial load in test [1] is reported as 1.65 ± 1.39; in test [2] (total dosage 120 mg/kg), 1.58 ± 2.45; in test [2] (total dosage 200 mg/kg) it was 0**.
By MIC is commonly meant the lowest concentration found to suppress growth. For `CC1(C)[C@H](NC(=O)/C(=N\OCCOc2ccc3c(c2)CCN(C(=N)NCCCN)C3)c2csc(N)n2)C(=O)N1OS(=O)(=O)O` [Compound 4], the MIC in the test on E. coli ATCC 25922 is no more than 0.125 µg/mL; in test [3] it was no more than 0.125 µg/mL; against E. coli MG1655Δtol C it was no more than 0.125 µg/mL; in [4], 0.25 µg/mL (≈ 0.382 µM); in the test with P. aeruginosa PA 14 it was 1 µg/mL (≈ 1.53 µM); in test [5], 1 µg/mL (≈ 1.53 µM). In addition, the MIC in [6] came to 8 µg/mL (≈ 12.2 µM); in test [7] it was 8 µg/mL (≈ 12.2 µM); in [8] it was 8 µg/mL (≈ 12.2 µM); in test [9], 4 µg/mL (≈ 6.12 µM); in [10], 4 µg/mL (≈ 6.12 µM); in test [11] it was 4 µg/mL (≈ 6.12 µM). Further, the MIC amounted to 2 µg/mL (≈ 3.06 µM) in test [12]; 0.5 µg/mL (≈ 0.765 µM) in [13]; 4 µg/mL (≈ 6.12 µM) in test [14]; 4 µg/mL (≈ 6.12 µM) in [15]; 4 µg/mL (≈ 6.12 µM) in test [16]; 4 µg/mL (≈ 6.12 µM) in test [17]. The MIC in test [18] is 8 µg/mL (≈ 12.2 µM); against P. aeruginosa ATCC 35151 it was no more than 0.125 µg/mL; in the test on A. baumannii ATCC 17978, 0.5 µg/mL (≈ 0.765 µM); in test [19], 0.5 µg/mL (≈ 0.765 µM).
